The values below come from publication PMC11312813, “An Optimized Peptide Antagonist of CXCR4 Limits Survival of BCR–ABL1-Transformed Cells in Philadelphia-Chromosome-Positive B-Cell Acute Lymphoblastic Leukemia” (International Journal of Molecular Sciences, 2024).

The test system of data set [1] is BCR–ABL1-transformed mouse B cells. The data set is described as follows: Real-time cell growth analysis by IncuCyte (GFP+ cell enrichment). In kind it is cell-based. To be noted: 1, 5 and 10 µM, over 96 h; n = 4–5.
Experimental: A flat-bottom 96-well plate was coated with 0.01% poly-L ornithine (#P4957, Sigma-Aldrich, Hamburg, Germany) for 1 h at room temperature (RT). […] The cells were plated in 100 μL complete medium. […] Plate was prewarmed at 37 °C for 30 min prior to placing in the IncuCyte chamber. Scanning was conducted every two hours for total of 4 days.
In data set [2] the test system is CXCR4. To be noted: ref [14],[17]; cited from earlier work.
Data set [3] deals with 697 cells. The data set is described as follows: Real-time cell growth by IncuCyte, 697. The format is cell-based, human. To be noted: 1 µM, 96 h; n = 3. On the procedure: (§1) The cells were plated in 100 μL complete medium.
Data set [4] has as its system SupB15 cells. The data set is described as follows: Real-time cell growth by IncuCyte, SupB15. The format is cell-based, human. The settings on record: 1 µM, 96 h; n = 3. On the procedure: as §1
Data set [5] has as its system TKO-EV cells (untransformed mouse BM pro-B cells). The data set is described as follows: Real-time cell growth analysis by IncuCyte, untransformed TKO-EV cells. The settings on record: 1 µM, 96 h; n = 3.
Experimental: A flat-bottom 96-well plate was coated with 0.01% poly-L ornithine (#P4957, Sigma-Aldrich, Hamburg, Germany) for 1 h at room temperature (RT). BCR–ABL1, SupB15, and 697 cells were counted as 0.5 × 10^5 cells/well, while TKO-BCR–ABL1 and TKO-EV cells as 1 × 10^5 cells/well, which were labeled with IncuCyte Cytotox Red dye (#4632, Sartorius, Ulm, Germany) as per the manufacturer’s protocol. The cells were plated in 100 μL complete medium. […] Plate was prewarmed at 37 °C for 30 min prior to placing in the IncuCyte chamber. Scanning was conducted every two hours for total of 4 days. Images were acquired using a 20X objective in phase contrast and fluorescence mode at 4 images/well and analyzed using the cell-by-cell analysis module of IncuCyte software version 2020B (Essen Bioscience, Ann Arbor, MI, USA).

Structures can show the parent of a compound that is named as a salt.

On to “IVRWSKK * (Pal)VPCVS [JM#169, fatty-acid-conjugated optimized EPI-X4 derivative]”, for which the “GFP enrichment (BCR–ABL1 cell growth) vs DMSO” value in data set [1] is recorded as “significant reduction in cell growth only after 72 h”. Besides, in data set [2], the CXCL12-induced calcium signaling entry is “block CXCL12-induced calcium signaling”.

Take “ILRWSRK * (Glu-Pal)LPCVS [JM#143, fatty-acid-conjugated optimized EPI-X4 derivative]”: the CXCL12-induced calcium signaling result in data set [2] is on record as “block CXCL12-induced calcium signaling”.

For “IVRWSKKVPCVS [WSC02, optimized 12-mer EPI-X4 derivative]”, the CXCL12-induced calcium signaling result in data set [2] is listed as “block CXCL12-induced calcium signaling”.

For the compound `Cc1ccc(NC(=O)c2ccc(CN3CCN(C)CC3)cc2)cc1Nc1nccc(-c2cccnc2)n1` [Imatinib, Imatinib mesylate, reference compound], the “697 cell growth vs DMSO” value in data set [3] is on record as “no effect on the 697 cells”. Moreover, in data set [4], the “SupB15 cell growth vs DMSO” value was “significantly reduced SupB15 cell growth”. For the same compound, the “Survival/growth of TKO-EV cells” value in data set [5] is “no effect on the TKO-EV cells”.

For “ILRWSRK * (Glu-Pal)-NH2 [JM#192, fatty-acid-conjugated optimized EPI-X4 derivative]”, in data set [2], the CXCL12-induced calcium signaling result was “block CXCL12-induced calcium signaling”.

For ILRWSRKLPCVS [JM#21], the CXCL12-induced calcium signaling result in data set [2] is “block CXCL12-induced calcium signaling”.
